Assay results reported in ChEMBL document CHEMBL6096689, “Structure-Guided Development of ClpP Agonists with Potent Therapeutic Activities against Staphylococcus aureus Infection” (J Med Chem, 2025).
In brackets after ≈: the same amount, converted by molar mass. Activity calls are given as the source filed them. The rule behind the calls is not given here.

What was measured:
[1] = target: T1, Cell division protein FtsZ (Staphylococcus aureus) (UniProt P0A031); assay: Induction of FtsZ degradation in Staphylococcus aureus 8325-4 incubated for 3 hrs by Western blot analysis; details: dose 1.25-10 µM
T1 sequence (whole entry): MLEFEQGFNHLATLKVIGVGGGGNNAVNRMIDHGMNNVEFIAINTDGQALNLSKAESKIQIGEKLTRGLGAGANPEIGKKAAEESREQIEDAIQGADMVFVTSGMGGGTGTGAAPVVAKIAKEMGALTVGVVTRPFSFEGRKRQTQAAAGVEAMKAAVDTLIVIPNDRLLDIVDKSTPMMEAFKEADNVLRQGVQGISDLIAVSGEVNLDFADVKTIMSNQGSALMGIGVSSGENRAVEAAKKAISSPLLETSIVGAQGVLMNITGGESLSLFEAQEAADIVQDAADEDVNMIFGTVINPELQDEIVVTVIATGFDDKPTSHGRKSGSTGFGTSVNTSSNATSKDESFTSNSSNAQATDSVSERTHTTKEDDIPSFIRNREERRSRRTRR

[2] = tested on: Staphylococcus aureus; assay: microbe, parasite or virus in culture; type: functional; details: time 18 hrs
Description: Antibacterial activity against multidrug-resistant Staphylococcus aureus clinical isolate XJ009 assessed as inhibition of visible growth of bacteria incubated for 18 hrs by absorbance based analysis

[3] = Therapeutic index, ratio of IC50 for HEK293T/17 cells to MIC for Staphylococcus aureus Newman; type: toxicity, cell-based; details: human, read-out: TI
[4] = tested on: Staphylococcus aureus; assay: Antibacterial activity against Staphylococcus aureus USA300 infected in Zebrafish infection model assessed as increase in zebrafish survival at 0.5 mg/kg pre-infected for 1 hrs followed by compound addition and measured after 5 days; type: functional, organism-based; details: time 5.0 day
[5] = tested on: Staphylococcus aureus; assay: microbe, parasite or virus in culture; type: functional; details: NRS-70, time 18 hrs
Description: Antibacterial activity against methicillin-resistant Staphylococcus aureus NRS-70 assessed as inhibition of visible growth of bacteria incubated for 18 hrs by absorbance based analysis

[6] = Toxicity in female ICR mouse model of peritonitis infected with oxacillin-resistant Staphylococcus aureus clinical isolate XJ049 assessed as effect on body weight at 50 mg/kg, ip pre-infected for 1 hrs followed by compound addition and measured after 5 days; type: organism-based; details: in vivo, 120 h, time 5 day
[7] = tested on: Staphylococcus aureus; assay: Antibacterial activity against oxacillin-resistant Staphylococcus aureus clinical isolate XJ049 infected in female ICR mouse peritonitis model assessed as mouse survival at 50 mg/kg, ip pre-infected for 1 hrs followed by compound addition and measured after 5 days relative to control; type: functional; details: 120 h, time 5 day
[8] = target: T2, ATP-dependent Clp protease proteolytic subunit, mitochondrial (Homo sapiens, UniProt Q16740); assay: Induction of thermal stabilization of CLpP in HEK293T/17 at 10 times of MIC preincubated for 2 hrs followed by compound washout and incubated under 57.3 to 74.5 degreeC for 3 mins by CETSA; type: cell-based
[9] = target: T2, ATP-dependent Clp protease proteolytic subunit, mitochondrial; assay: Agonist activity at human ClpP extracted from Escherichia coli Rosetta (DE3) cells using alpha-casein as substrate assessed as substrate hydrolysis preincubated for 15 mins followed by substrate addition and measured after 2 hrs by SDS-PAGE analysis
[10] = tested on: Staphylococcus aureus; assay: microbe, parasite or virus in culture; type: functional; details: NRS-271, time 18 hrs
Description: Antibacterial activity against methicillin-resistant Staphylococcus aureus NRS-271 assessed as inhibition of visible growth of bacteria incubated for 18 hrs by absorbance based analysis

[11] = tested on: Staphylococcus aureus; assay: microbe, parasite or virus in culture; type: functional; details: NRS-108, time 18 hrs
Description: Antibacterial activity against methicillin-resistant Staphylococcus aureus NRS-108 assessed as inhibition of visible growth of bacteria incubated for 18 hrs by absorbance based analysis

[12] = target: T3, ATP-dependent Clp protease proteolytic subunit (Staphylococcus aureus (strain NCTC 8325)) (UniProt Q2G036); assay: Potency index, ratio of ONC212 EC50 to test compound EC50 for agonist activity at Staphylococcus aureus ClpP extracted from Escherichia coli BL21 (DE3) cells using FITC-casein as substrate assessed as substrate hydrolysis preincubated for 60 mins followed by substrate addition and measured after 1 hrs by fluorescence based analysis; details: time 120.0 min
T3 sequence (whole entry): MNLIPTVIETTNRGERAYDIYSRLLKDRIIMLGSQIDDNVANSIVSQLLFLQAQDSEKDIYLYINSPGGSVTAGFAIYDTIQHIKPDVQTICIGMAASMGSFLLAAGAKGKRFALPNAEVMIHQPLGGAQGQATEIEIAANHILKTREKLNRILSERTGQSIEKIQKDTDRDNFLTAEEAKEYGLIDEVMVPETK

[13] = tested on: Staphylococcus aureus; assay: Antibacterial activity against CLpP overexpressing Staphylococcus aureus 8325-4 assessed as inhibition of visible growth of bacteria incubated for 18 hrs by absorbance based assay; type: functional, organism-based
[14] = tested on: Staphylococcus aureus; assay: Antibacterial activity against Staphylococcus aureus USA300 infected in female ICR mouse peritonitis model assessed as reduction in bacterial load in kidney at 25 to 100 mg/kg, ip pre-infected for 1 hrs followed by compound addition and measured after 5 days relative to control; type: functional; details: dose 25-100 mg/kg, time 5 day
[15] = tested on: Staphylococcus aureus; assay: Antibacterial activity against Staphylococcus aureus USA300 infected in female ICR mouse peritonitis model assessed as reduction in bacterial load in spleen at 25 to 100 mg/kg, ip pre-infected for 1 hrs followed by compound addition and measured after 5 days relative to control; type: functional; details: dose 25-100 mg/kg, time 5 day
[16] = tested on: Staphylococcus aureus; assay: Antibacterial activity against Staphylococcus aureus USA300 infected in Zebrafish infection model assessed as increase in zebrafish survival at 25 mg/kg pre-infected for 1 hrs followed by compound addition and measured after 5 days; type: functional, organism-based; details: time 5.0 day
[17] = tested on: Staphylococcus aureus; assay: microbe, parasite or virus in culture; type: functional; details: time 18 hrs; remark: listed apart in the source
Description: Antibacterial activity against multidrug-resistant Staphylococcus aureus clinical isolate XJ052 assessed as inhibition of visible growth of bacteria incubated for 18 hrs by absorbance based analysis

[18] = Therapeutic index, ratio of IC50 for HK-2 cells to MIC for Staphylococcus aureus Newman; type: toxicity, cell-based; details: human, read-out: TI
[19] = tested on: Staphylococcus aureus; assay: microbe, parasite or virus in culture; type: functional; details: time 18 hrs; remark: listed apart in the source
Description: Antibacterial activity against multidrug-resistant Staphylococcus aureus clinical isolate XJ025 assessed as inhibition of visible growth of bacteria incubated for 18 hrs by absorbance based analysis

[20] = tested on: Staphylococcus aureus; assay: Antibacterial activity against Staphylococcus aureus USA300 infected in female ICR mouse peritonitis model assessed as reduction in bacterial load in peritoneal fluid at 25 to 100 mg/kg, ip pre-infected for 1 hrs followed by compound addition and measured after 5 days relative to control; type: functional; details: dose 25-100 mg/kg, time 5 day
[21] = target: T3, ATP-dependent Clp protease proteolytic subunit (Staphylococcus aureus (strain NCTC 8325)); assay: Induction of thermal stabilization of Staphylococcus aureus ClpP extracted from Escherichia coli BL21 (DE3) cells assessed as change in melting temperature at 10 uM incubated for 10 mins by DSF analysis
[22] = tested on: Staphylococcus aureus; assay: microbe, parasite or virus in culture; type: functional; details: USA300, time 18 hrs
Description: Antibacterial activity against methicillin-resistant Staphylococcus aureus USA300 assessed as inhibition of visible growth of bacteria incubated for 18 hrs by absorbance based analysis

[23] = target: T3, ATP-dependent Clp protease proteolytic subunit (Staphylococcus aureus (strain NCTC 8325)); assay: Induction of thermal stabilization of CLpP in Staphylococcus aureus Newman at 10 times of MIC preincubated for 2 hrs followed by compound washout and incubated under 57.3 to 74.5 degreeC for 3 mins by CETSA
[24] = target: T2, ATP-dependent Clp protease proteolytic subunit, mitochondrial; assay: Induction of thermal stabilization of human ClpP extracted from Escherichia coli Rosetta (DE3) cells assessed as change in melting temperature at 10 uM incubated for 10 mins by DSF analysis
[25] = tested on: Staphylococcus aureus; assay: Antibacterial activity against Staphylococcus aureus USA300 infected in female ICR mouse peritonitis model assessed as increase in mouse survival at 25 to 100 mg/kg, ip pre-infected for 1 hrs followed by compound addition and measured after 5 days relative to control; type: functional; details: dose 25-100 mg/kg, time 5 day
[26] = tested on: Staphylococcus aureus; assay: Antibacterial activity against Staphylococcus aureus USA300 infected in female ICR mouse peritonitis model assessed as reduction in bacterial load in heart at 25 to 100 mg/kg, ip pre-infected for 1 hrs followed by compound addition and measured after 5 days relative to control; type: functional; details: dose 25-100 mg/kg, time 5 day
[27] = tested on: Staphylococcus aureus; assay: Antibacterial activity against Staphylococcus aureus USA300 infected in female ICR mouse peritonitis model assessed as reduction in bacterial load in liver at 25 to 100 mg/kg, ip pre-infected for 1 hrs followed by compound addition and measured after 5 days relative to control; type: functional; details: dose 25-100 mg/kg, time 5 day
[28] = Therapeutic index, ratio of IC50 for human ARH-77 cells to MIC for Staphylococcus aureus Newman; type: toxicity, cell-based; details: read-out: TI

T2 sequence (Q16740 whole entry): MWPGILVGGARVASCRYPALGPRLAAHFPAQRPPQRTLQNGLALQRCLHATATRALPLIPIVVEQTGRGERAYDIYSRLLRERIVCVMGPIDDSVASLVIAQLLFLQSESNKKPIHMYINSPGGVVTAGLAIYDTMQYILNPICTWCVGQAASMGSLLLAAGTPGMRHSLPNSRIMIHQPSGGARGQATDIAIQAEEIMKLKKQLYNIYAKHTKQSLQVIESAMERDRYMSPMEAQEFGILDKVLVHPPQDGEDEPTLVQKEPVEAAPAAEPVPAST

With `CC[C@H](C)[C@H]1C(=O)N(Cc2ccc(OC)c3ccccc23)C[C@@H]2N(C(=O)NCCCC(F)(F)F)CCC(=O)N12` the Activity [1] was “Dose-dependent-effect”, the MIC [2] was 0.06 µg/mL (≈ 0.109 µM) and the selectivity ratio [3] was 190. For the same molecule, the Activity [4] was “Active; Significant Improvement Observed Compared To 0.5 Mg/Kg Of Vancomycin”, the MIC [5] was 0.06 µg/mL (≈ 0.109 µM) and the Activity [6] was “Non-toxic”. For the same molecule, the survival at 50 mg/kg [7] was 100%, the Activity [8] was “Active; Minimal Effect On Thermal Stability Observed” and the EC50 [9] was 3.6 µM. For the same molecule, the MIC [10] was 0.06 µg/mL (≈ 0.109 µM), the MIC [11] was 0.06 µg/mL (≈ 0.109 µM) and the Ratio EC50 [12] was 2.2. The Activity [13] was “Active”, the Activity [14] was 2 log10CFU/g and the Activity [15] was 2 log10CFU/g. The Activity [16] was “Active”, the MIC [17] was 0.13 µg/mL (≈ 0.237 µM) and the selectivity ratio [18] was 180. It also gave an MIC [19] of 0.13 µg/mL (≈ 0.237 µM), an Activity [20] of 2 log10CFU/g and a ΔTm [21] of 22.8 °C. The MIC [22] was 0.06 µg/mL (≈ 0.109 µM), the Activity [23] was “Active” and the ΔTm [24] was 18 °C. The Activity [25] was 89%, the Activity [26] was 2 log10CFU/g and the Activity [27] was 2 log10CFU/g. It also gave a selectivity ratio [28] of 206.
